Laboratory results reported in US10544095B2 (Pfizer Inc., priority 2015, dated 2020).

Key:
TDO2 = TDO2 (Mus musculus (Mouse), UniProt P48776); assay: Pharmacodynamic assay for TDO2 in vivo activity: increase of blood tryptophan levels in mice; details: female BALB/c mice, plasma after two hours
Method: The compounds of the present invention increase the amount of Tryptophan in mouse blood. Briefly, female BALB/c mice (7-8 weeks old) were treated with either a suspension of one of the compounds of the present invention in 0.5% hydroxypropyl methyl cellulose (HPMC) K4M (4000 mPa·s (cPs), Methocell™, Dow chemical)/0.25% Tween® 20 (Sigma Aldrich) at different doses (30, 60 and 100 mg/kg), or with a vehicle control (0.5% HPMC K4M/0.25% Tween 20), by the oral route by gavage (dosing volume 5 mL/kg, 10 mice per group). After two hours, blood was harvested, plasma was prepared and the amount of Tryptophan present was determined by LC-MS-MS (HPLC column Unison UK-Phenyl, 75×4.6, 3 μm, flow rate 0.8 mL/min, 8 minutes gradient from 95% water+0.1% formic acid/5% Acetonitrile+0.1% formic acid to 5% water+0.1% formic acid/95% Acetonitrile+0.1% formic acid, retention time 2.4 min; API4000 MS-MS system from AB Sciex, ESI+ mode, parent ion 205.1, daughter ion 146.1).

[1] = target: hTDO2 in human glioblastoma A172 cells (Homo sapiens (Human), UniProt P48775); assay: Cellular assay for TDO2 activity determination in A172 cells; assay type: cell-based; details: overnight incubation, kynurenine absorbance at 480 nm
Method in brief: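 Glioblastoma A172 cells with endogenous hTDO2, 1.25×10^4 cells/well, incubated overnight at 37° C. with ten serial compound concentrations in IMDM with 2% FBS. Supernatant kynurenine, after TCA precipitation and 4-(dimethylamino)-benzaldehyde reaction, read at 480 nm against kynurenine standard curve; data curve-fitted.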

[2] = target: human recombinant TDO2 enzyme (Homo sapiens (Human), UniProt P48775); assay: Assay for TDO2 enzymatic activity determination; assay type: biochemical; details: human recombinant TDO2, L-Trp 1 mM, kynurenine absorbance at 480 nm
Method: The compounds of formula I, its subformulae, and enantiomers, salts and solvates thereof, are useful to inhibit the enzymatic activity of human TDO2. To measure the TDO2 activity, the procedure described in Dolusic et al. J. Med. Chem.; 2011, 54, […] was adapted: the reaction mixture contained (final concentrations) potassium phosphate buffer (50 mM, pH 7.5), ascorbic acid ([…]), methylene blue (0.125 μM), catalase (40 units/mL, from bovine liver, Sigma), and human recombinant TDO2 enzyme (prepared as described in Dolusic et al. J. Med. Chem.; 2011, 54, 5320-5334; 0.9 μg) without or with the compounds of the present invention at the indicated concentrations (total volume 112.5 μL). The reaction was initiated by the addition of 37.5 μL of L-Trp (final concentration 1 mM) at room temperature. The reaction was conducted at room temperature during one hour and stopped by the addition of 30 μL of 30% (w/v) trichloroacetic acid. To convert N-formylkynurenine into kynurenine, the reaction mixture was incubated at 65° C. for 30 min. […] Kynurenine concentrations were determined by measuring the absorbance at 480 nm. A standard curve was made with pure kynurenine. The TDO activity was measured as described above using ten serial concentrations of the compounds of the present invention. Data were fitted using the Prism™ software (GraphPad Software, Inc.) using standard parameters.

Sequence of TDO2 (P48776 whole entry): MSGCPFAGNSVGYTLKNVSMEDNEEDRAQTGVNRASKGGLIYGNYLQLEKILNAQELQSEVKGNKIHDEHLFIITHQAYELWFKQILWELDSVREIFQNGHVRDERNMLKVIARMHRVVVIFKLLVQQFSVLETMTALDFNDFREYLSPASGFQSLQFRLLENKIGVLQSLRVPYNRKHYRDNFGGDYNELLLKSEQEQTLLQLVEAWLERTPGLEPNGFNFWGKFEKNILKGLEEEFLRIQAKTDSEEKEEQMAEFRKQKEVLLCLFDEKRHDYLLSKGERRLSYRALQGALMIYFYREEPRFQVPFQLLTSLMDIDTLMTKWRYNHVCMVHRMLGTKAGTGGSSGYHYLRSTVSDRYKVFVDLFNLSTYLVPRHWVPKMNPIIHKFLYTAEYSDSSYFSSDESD
Sequence of human recombinant TDO2 enzyme (P48775 whole entry): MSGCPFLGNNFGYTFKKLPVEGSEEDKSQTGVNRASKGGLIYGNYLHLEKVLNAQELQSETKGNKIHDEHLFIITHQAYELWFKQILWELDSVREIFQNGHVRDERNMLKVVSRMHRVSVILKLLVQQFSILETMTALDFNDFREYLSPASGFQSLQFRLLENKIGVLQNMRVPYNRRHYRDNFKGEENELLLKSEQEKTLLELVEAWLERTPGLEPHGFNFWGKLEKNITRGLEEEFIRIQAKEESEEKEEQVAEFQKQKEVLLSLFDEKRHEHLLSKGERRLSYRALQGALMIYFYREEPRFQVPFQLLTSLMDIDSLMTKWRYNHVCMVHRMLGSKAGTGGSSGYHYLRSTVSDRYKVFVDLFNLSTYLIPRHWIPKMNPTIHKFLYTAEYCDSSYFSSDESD
Sequence of hTDO2 in human glioblastoma A172 cells (P48775 whole entry): as above

IC50 [1] [nM] | IC50 [2] [nM] | SMILES | also measured
190 | 1100 | O=S(=O)(c1ccc(-c2c[nH]c3cc(F)ccc23)cc1)N1CCN[C@H](CO)C1 [Example 18, (S)-(4-((4-(6-fluoro-1H-indol-3-yl)phenyl)sulfonyl)piperazin-2-yl)methanol] | increase of circulating Tryptophan compared to vehicle-treated controls (TDO2; 30 mg/kg oral gavage): 67%; increase of circulating Tryptophan compared to vehicle-treated controls (TDO2; 60 mg/kg oral gavage): 81%; increase of circulating Tryptophan compared to vehicle-treated controls (TDO2; 100 mg/kg oral gavage): 74%
180 |  | CC(=O)NCCNS(=O)(=O)c1ccc(-c2c[nH]c3cc(F)ccc23)cc1 [Example 16, N-(2-(4-(6-fluoro-1H-indol-3-yl)phenylsulfonamido)-ethyl)acetamide] | Trp in plasma (average ± standard error of the mean) (TDO2; 30 mg/kg oral gavage): 32700 ng/mL; Trp in plasma (average ± standard error of the mean) (TDO2; 60 mg/kg oral gavage): 35300 ng/mL; Trp in plasma (average ± standard error of the mean) (TDO2; 100 mg/kg oral gavage): 34000 ng/mL
120 | 120 | O=S(=O)(c1ccc(-c2c[nH]c3cc(F)ccc23)cc1)N1CCC(O)(c2cncnc2)C1 (stereo not drawn) [Example 120, 1-((4-(6-fluoro-1H-indol-3-yl)phenyl)sulfonyl)-3-(pyrimidin-5-yl)pyrrolidin-3-ol] | 
240 | 1800 | NCCNS(=O)(=O)c1cccc(-c2c[nH]c3cc(F)ccc23)c1 [Example 9, N-(2-aminoethyl)-3-(6-fluoro-1H-indol-3-yl)benzenesulfonamide] | 
160 | 1000 | C[C@H](CO)NS(=O)(=O)c1ccc(-c2c[nH]c3cc(F)ccc23)cc1 [Example 96, 4-(6-fluoro-1H-indol-3-yl)-N-[(2R)-1-hydroxypropan-2-yl]benzenesulfonamide] | 
130 | 530 | O=S(=O)(c1ccc(-c2c[nH]c3cc(F)ccc23)cc1)N1C[C@@H](O)[C@@H](O)C1 [Example 58, (cis)-1-((4-(6-fluoro-1H-indol-3-yl)phenyl)sulfonyl)-pyrrolidine-3,4-diol] | 
150 | 1100 | NCCNC(=O)c1ccc(-c2c[nH]c3cc(F)ccc23)cc1 [Example 2, N-(2-aminoethyl)-4-(6-fluoro-1H-indol-3-yl)benzamide] | 
55 | 170 | O=S(=O)(c1ccc(-c2c[nH]c3cc(F)ccc23)cc1)N1CC[C@@H](O)C1 [Example 77, (R)-1-((4-(6-fluoro-1H-indol-3-yl)phenyl)sulfonyl)-pyrrolidin-3-ol] | 
110 | 2100 | O=C(c1ccc(-c2c[nH]c3cc(F)ccc23)cc1)N1CCNCC1 [Example 3, (4-(6-fluoro-1H-indol-3-yl)phenyl)(piperazin-1-yl)methanone] | 
170 | 930 | O=S1(=O)CCC(NS(=O)(=O)c2ccc(-c3c[nH]c4cc(F)ccc34)cc2)C1 (stereo not drawn) [Example 87, N-(1,1-dioxidotetrahydrothiophen-3-yl)-4-(6-fluoro-1H-indol-3-yl)-benzenesulfonamide] | 
95 | 940 | CS(=O)(=O)CCNS(=O)(=O)c1ccc(-c2c[nH]c3cc(F)ccc23)cc1 [Example 88, 4-(6-fluoro-1H-indol-3-yl)-N-[2-(methylsulfonyl)ethyl]-benzene-sulfonamide] | 
430 | 770 | NCCNS(=O)(=O)c1cc(-c2c[nH]c3cc(F)ccc23)ccc1Cl [Example 36, N-(2-aminoethyl)-2-chloro-5-(6-fluoro-1H-indol-3-yl)-benzenesulfonamide] | 
200 | 550 | C[C@@H](O)CNS(=O)(=O)c1ccc(-c2c[nH]c3cc(F)ccc23)cc1 [Example 93, (−)-(R)-4-(6-fluoro-1H-indol-3-yl)-N-(2-hydroxypropyl)-benzenesulfonamide] | 
94 | 120 | O=S(=O)(c1ccc(-c2c[nH]c3cc(F)ccc23)cc1)N1CC[C@H](O)C1 [Example 79, (S)-1-((4-(6-fluoro-1H-indol-3-yl)phenyl)sulfonyl)-pyrrolidin-3-ol] | 
340 | 4400 | O=S(=O)(c1cccc(-c2c[nH]c3cc(F)ccc23)c1)N1CCNCC1 [Example 7, 6-fluoro-3-(3-(piperazin-1-ylsulfonyl)phenyl)-1H-indole] | 
170 | 900 | N[C@H]1CN(S(=O)(=O)c2ccc(-c3c[nH]c4cc(F)ccc34)cc2)C[C@@H]1F [Example 80, (3S,4 S)-4-fluoro-1-{[4-(6-fluoro-1H-indol-3-yl)phenyl]sulfonyl}pyrrolidin-3-amine] | 
83 | 2400 | NS(=O)(=O)c1cccc(-c2c[nH]c3cc(F)ccc23)c1 [Example 10, 3-(6-fluoro-1H-indol-3-yl)benzenesulfonamide] | 
82 | 1000 | NS(=O)(=O)c1ccc(-c2c[nH]c3cc(F)ccc23)cc1 [Example 6, 4-(6-fluoro-1H-indol-3-yl)benzenesulfonamide] | 
110 | 730 | NC(=O)CCNS(=O)(=O)c1ccc(-c2c[nH]c3cc(F)ccc23)cc1 [Example 26, 3-(4-(6-fluoro-1H-indol-3-yl)phenylsulfonamido)propanamide] | 
95 | 890 | NCCNS(=O)(=O)c1ccc(-c2c[nH]c3cc(F)ccc23)cc1 [Example 8, N-(2-aminoethyl)-4-(6-fluoro-1H-indol-3-yl)-benzenesulfonamide] | 
